The text below walks through data of ChEMBL document CHEMBL4138222, “Cytotoxicity, molecular modeling, cell cycle arrest, and apoptotic induction induced by novel tetrahydro-[1,2,4]triazolo[3,4-a]isoquinoline chalcones” (Eur J Med Chem, 2018).

Test [1] concerns MCF7. As to the kind of experiment: Downregulation of CDK4 mRNA expression in human MCF7 cells at IC50 after 48 hrs by RT-PCR method. It counts as functional, cell-based.
Test [2] has as its system MCF7. Kind of test: Cytotoxicity against human MCF7 cells assessed as inhibition of cell proliferation after 48 hrs by MTT assay. It counts as functional, cell-based. To be noted: MCF7, 48 h.
The test system of test [3] is MCF7. As to the kind of experiment: Induction of apoptosis in human MCF7 cells assessed as cell aggregates at 27.15 ug/ml after 48 hrs by propidium iodide staining-based flow cytometric method (reference value: 4.49%). It counts as functional. For orientation: A flow cytometer gives signals particle by particle.
Test [4] concerns MCF7. As to the kind of experiment: Upregulation of Bax mRNA expression in human MCF7 cells at IC50 after 48 hrs by RT-PCR method. Type of test: functional, cell-based.
In test [5] the test system is MCF7. As to the kind of experiment: Upregulation of caspase-3 mRNA expression in human MCF7 cells at IC50 after 48 hrs by RT-PCR method. It counts as functional, cell-based.
The subject of test [6] is MCF7. Kind of test: Upregulation of p53 mRNA expression in human MCF7 cells at IC50 after 48 hrs by RT-PCR method. It counts as functional, cell-based.
For test [7], the system named is MCF7. As to the kind of experiment: Downregulation of BCL-2 mRNA expression in human MCF7 cells at IC50 after 48 hrs by RT-PCR method. Type of test: functional, cell-based.
Test [8] deals with MCF7. As to the kind of experiment: Downregulation of MMP1 mRNA expression in human MCF7 cells at IC50 after 48 hrs by RT-PCR method. Type of test: functional, cell-based.
Test [9] deals with MCF7. As to the kind of experiment: Induction of apoptosis in human MCF7 cells assessed as cell debris at 27.15 ug/ml after 48 hrs by propidium iodide staining-based flow cytometric method (reference value: 2.75%). Type of test: functional.
Test [10] relates to MCF7. As to the kind of experiment: Induction of apoptosis in human MCF7 cells at 27.15 ug/ml after 48 hrs by propidium iodide staining-based flow cytometric method (reference value: 0.55%). Type of test: functional.
For another test, the system named is HepG2. As to the kind of experiment: Cytotoxicity against human HepG2 cells assessed as inhibition of cell proliferation after 48 hrs by MTT assay. To be noted: HepG2, 48 h. It counts as functional, cell-based.
The test system of another test is A549. Kind of test: Cytotoxicity against human A549 cells assessed as inhibition of cell proliferation after 48 hrs by MTT assay. Type of test: functional, cell-based. To be noted: A549, 48 h. (In general: Formazan colour is commonly taken as a measure of viable cells.)
Test [11] concerns MCF7. Kind of test: Cell cycle arrest in human MCF7 cells assessed as accumulation at G2/M phase at 27.15 ug/ml after 48 hrs by propidium iodide staining-based flow cytometric method (reference value: 4.82%). Type of test: functional.
For test [12], the system named is MCF7. Kind of test: Cell cycle arrest in human MCF7 cells assessed as accumulation at G0/G1 phase at 27.15 ug/ml after 48 hrs by propidium iodide staining-based flow cytometric method (reference value: 71.13%). Type of test: functional.
Test [13] concerns MCF7. Kind of test: Induction of apoptosis in human MCF7 cells assessed as induction of caspase-3 activity by measuring caspase-3 levels at 27.15 ug/ml after 24 hrs ELISA (reference value: 0.0197 ng/ml). It counts as functional. A general note: An ELISA detects its analyte on a solid surface through an enzyme-linked reagent.
Test [14] has as its system MCF7. Kind of test: Cell cycle arrest in human MCF7 cells assessed as accumulation at S phase at 27.15 ug/ml after 48 hrs by propidium iodide staining-based flow cytometric method (reference value: 23.5%). Type of test: functional.
For test [15], the system named is MCF7. Kind of test: Induction of apoptosis in human MCF7 cells assessed as induction of caspase-3 activity by measuring caspase-3 levels at 50.05 ug/ml after 24 hrs ELISA (reference value: 0.0197 ng/ml). It counts as functional.
The subject of the next test is HCT-116. As to the kind of experiment: Cytotoxicity against human HCT116 cells assessed as inhibition of cell proliferation after 48 hrs by MTT assay. To be noted: HCT-116, 48 h. It counts as functional, cell-based.
Test [16] relates to MCF7. As to the kind of experiment: Induction of apoptosis in human MCF7 cells at 50.05 ug/ml after 48 hrs by propidium iodide staining-based flow cytometric method (reference value: 0.55%). It counts as functional.
Test [17] deals with MCF7. As to the kind of experiment: Induction of apoptosis in human MCF7 cells assessed as cell aggregates at 50.05 ug/ml after 48 hrs by propidium iodide staining-based flow cytometric method (reference value: 4.49%). Type of test: functional.
Test [18] has as its system MCF7. Kind of test: Cell cycle arrest in human MCF7 cells assessed as accumulation at G0/G1 phase at 50.05 ug/ml after 48 hrs by propidium iodide staining-based flow cytometric method (reference value: 71.13%). It counts as functional.
Test [19] is described as follows: Cytotoxicity against human HFB4 cells assessed as inhibition of cell proliferation after 48 hrs by MTT assay. It counts as cell-based.
Test [20] has as its system MCF7. Kind of test: Induction of apoptosis in human MCF7 cells assessed as cell debris at 50.05 ug/ml after 48 hrs by propidium iodide staining-based flow cytometric method (reference value: 2.75%). It counts as functional.
Test [21] concerns MCF7. As to the kind of experiment: Cell cycle arrest in human MCF7 cells assessed as accumulation at G2/M phase at 50.05 ug/ml after 48 hrs by propidium iodide staining-based flow cytometric method (reference value: 4.82%). It counts as functional.
Test [22] concerns MCF7. As to the kind of experiment: Cell cycle arrest in human MCF7 cells assessed as accumulation at S phase at 50.05 ug/ml after 48 hrs by propidium iodide staining-based flow cytometric method (reference value: 23.5%). Type of test: functional.

Converted amounts (≈) assume the structure as drawn. The source made the active and inactive calls. The rule behind the calls is not given here.

As a reminder, the IC50 is the concentration that inhibits the measured activity by half.

Turning to `COc1cc2c(cc1OC)C1N(CC2)C(C(=O)/C=C/c2cc(OC)c(OC)c(OC)c2)=NN1c1ccccc1` (stereo not drawn), the result in the test on MCF7 [1], in the test on MCF7 [4], with MCF7 [5], in the test on MCF7 [6], in the test on MCF7 [7] and in the test with MCF7 [8] was Active. Besides, the IC50 with MCF7 [2] was determined as 27.1 µg/mL (≈ 51.3 µM); in the test with HepG2, 107 µg/mL (≈ 202 µM); in the test on A549, 156 µg/mL (≈ 295 µM). Further, the Activity turned out to be 7.92% in the test with MCF7 [3]; 5.71% with MCF7 [9]; 17.28% in the test with MCF7 [10]; 0.6% with MCF7 [11]; 66.11% in the test with MCF7 [12]; 0.4108 ng/mL in the test on MCF7 [13]. In the test with MCF7 [14], the Activity came out at 16.01%.

In the case of `COc1cc2c(cc1OC)C1N(CC2)C(C(=O)/C=C/c2ccc([N+](=O)[O-])cc2)=NN1c1ccccc1` (stereo not drawn), the Activity came out at 0.3573 ng/mL in the test on MCF7 [15]; 8.72% with MCF7 [16]; 4.85% in the test on MCF7 [17]; 74.52% with MCF7 [18]; 3.88% with MCF7 [20]; 0% in the test with MCF7 [21]. Moreover, the Activity with MCF7 [22] stood at 17.06%. Further, the result in the test on MCF7 [1], with MCF7 [4], in the test on MCF7 [5], in the test with MCF7 [6], in the test with MCF7 [7] and with MCF7 [8] was Active. Further, the IC50 in the test on HCT-116 came out at 114 µg/mL (≈ 236 µM); in the test on MCF7 [2], 50 µg/mL (≈ 103 µM); in test [19], 245 µg/mL (≈ 506 µM); with HepG2, 478 µg/mL (≈ 986 µM); in the test on A549, 207 µg/mL (≈ 427 µM).

As for `COc1cc2c(cc1OC)C1N(CC2)C(C(=O)/C=C/c2ccc3c(c2)OCO3)=NN1c1ccccc1` (stereo not drawn), the IC50 with HCT-116 was 187 µg/mL (≈ 388 µM); with MCF7 [2] it was 225 µg/mL (≈ 466 µM); in test [19], 51.9 µg/mL (≈ 107 µM); in the test on HepG2 it was 122 µg/mL (≈ 253 µM); in the test with A549, 201 µg/mL (≈ 417 µM).

Take `COc1cc2c(cc1OC)C1N(CC2)C(C(=O)/C=C/c2ccccc2)=NN1c1ccccc1` (stereo not drawn): the IC50 is 625 µg/mL (≈ 1420 µM) in the test on HCT-116; 61.4 µg/mL (≈ 140 µM) with MCF7 [2]; 52.1 µg/mL (≈ 119 µM) in test [19]; 139 µg/mL (≈ 317 µM) in the test with HepG2; 78.1 µg/mL (≈ 178 µM) with A549.

`COc1cc2c(cc1OC)C1N(CC2)C(C(=O)/C=C/c2ccc(Cl)cc2)=NN1c1ccccc1` (stereo not drawn): the IC50 amounted to 622 µg/mL (≈ 1310 µM) with HCT-116; 151 µg/mL (≈ 319 µM) with MCF7 [2]; 57.2 µg/mL (≈ 121 µM) in test [19]; 141 µg/mL (≈ 297 µM) with HepG2; 156 µg/mL (≈ 329 µM) with A549.

As for `O=c1[nH]cc(F)c(=O)[nH]1` [FLUOROURACIL], the IC50 in the test on HCT-116 is 201 µg/mL (≈ 1550 µM); with MCF7 [2] it was 178 µg/mL (≈ 1370 µM); with HepG2, 237 µg/mL (≈ 1820 µM); in the test with A549, 66 µg/mL (≈ 507 µM).

Take `COc1ccc(/C=C/C(=O)C2=NN(c3ccccc3)C3c4cc(OC)c(OC)cc4CCN23)cc1` (stereo not drawn): the IC50 with HCT-116 is 243 µg/mL (≈ 518 µM); in the test with MCF7 [2], 68.5 µg/mL (≈ 146 µM); in test [19], 115 µg/mL (≈ 245 µM); in the test with HepG2 it was 218 µg/mL (≈ 464 µM); in the test with A549, 190 µg/mL (≈ 404 µM).
